The source of these data is patent publication US8338424B2, “Guanidine-containing compounds useful as muscarinic receptor antagonists” (Theravance, Inc., priority 2007, dated 2012).

In experiment [1] the test system is rats (Sprague-Dawley). In words: Rat Einthoven assay (bronchoprotection against MCh). It counts as in vivo. The settings on record: for ID50 (potency): 1.5 hrs post-dose. The method, then:
All test compounds are diluted in sterile water and are dosed via the inhalation route (IH). The rats (Sprague-Dawley, male, 250-350 g) are exposed to the aerosol generated from an LC Star Nebulizer Set and driven by a mixture of gases (5% CO2/95% atmospheric air). Each test compound solution is nebulized over a 10 minute time period in a pie shaped dosing chamber capable of holding six rats. At predetermined time points after inhalation of compound, the Einthoven assay is performed.
Thirty minutes prior to the start of pulmonary evaluation, the animals are anesthetized with inactin (thiobutabarbital, 120 mg/kg IP). The jugular vein is catheterized with saline filled polyethylene catheters (PE-50) and used to infuse MCh. The trachea is then dissected and cannulated with a 14G needle and used for rat ventilation during pulmonary evaluation. Once surgery is complete, rats are ventilated using a piston respirator set at a stroke volume of 1 ml/100 g body weight but not exceeding 2.5 ml volume, and at a rate of 90 strokes per minute.
The changes in pressure that occur with each breath are measured. Baseline values are collected for at least 2.5 minutes then rats are challenged non-cumulatively with 2-fold incremental increases of the bronchoconstrictor MCh (5, 10, 20, 40 and 80 μg/ml). The MCh is infused for 2.5 minutes from a syringe pump at a rate of 2 mL/kg/min. The animals are euthanized upon completion of the studies.
Changes in ventilation pressure (cm H20) in treated animals are expressed as % inhibition of MCh response relative to control animals.
Standard muscarinic antagonists were evaluated in the rat Einthoven assay 1.5 hrs post-dose.
Standards tiotropium and ipratropium were also evaluated 24 hr and/or 6 hr post-dose in the rat Einthoven assay. […] The observed loss of activity at this time point (6 hr) is consistent with its relatively short duration of action in the clinic.

Experiment [2] deals with rats (Sprague-Dawley). In words: Rat antisialagogue assay (pilocarpine-induced salivation). The format is in vivo. The settings on record: evaluated at 1, 6, and 24 hr post-dose. The procedure:
Rats (Sprague-Dawley, male, 250-350 g) are dosed, anesthetized and cannulated as described for Assay 3. At predetermined time points and after surgery, animals are placed on their dorsal side at a 20° incline with their head in a downward slope. A pre-weighed gauze pad is inserted in the animal's mouth and the muscarinic agonist pilocarpine (PILO) (3 mg/kg, iv.) is administered. Saliva produced during 10 minutes post-PILO is measured gravimetrically by determining the weight of the gauze pad before and after PILO. Antisialagogue effects are expressed as % inhibition of salivation relative to control animals.
The rat antisialagogue assay was developed to assess systemic exposure and calculate the lung selectivity index (LSI) of test compounds. The standard, tiotropium, was evaluated in this model at 1, 6, and 24 hr post-dose. […] This finding is consistent with the peak effects observed in the Einthoven assay.
This model is a modified version of the procedure described in Rechter, “Estimation of anticholinergic drug effects in mice by antagonism against pilocarpine-induced salivation” Ata Pharmacol Toxicol 24:243-254 (1996). The mean weight of saliva in vehicle-treated animals, at each pre-treatment time, is calculated and used to compute % inhibition of salivation, at the corresponding pre-treatment time, at each dose.

As for `C[N+]1(C)[C@@H]2C[C@@H](OC(=O)C(O)(c3cccs3)c3cccs3)C[C@H]1[C@@H]1O[C@@H]12` [tiotropium], in experiment [1] (inhalation), the “ID50 (potency)” value was found to be 6 µg/mL and the “time of peak bronchoprotection post-dose” value was 6 h. In addition, in experiment [1] (6 hr and 24 hr post-dose), the “6 hr versus 24 hr potency values” is recorded as “not significantly different from each other”; the “fold more potent at 6 hr and 24 hr compared to 1.5 hr potency” value was “about 2 fold”. Further, the “time post dose at which most potent at inhibiting pilocarpine-induced salivation” value in experiment [2] was found to be 6 h.

For `C[N+]1(C)CCC(OC(=O)C(O)(c2ccccc2)C2CCCC2)C1` (centres unmarked) [glycopyrrolate], the “ID50 (potency)” value in experiment [1] (inhalation) worked out at 15 µg/mL.

`CC(C)[N+]1(C)[C@@H]2CC[C@H]1C[C@@H](OC(=O)C(CO)c1ccccc1)C2` (some centres unmarked) [ipratropium]: in experiment [1] (6-hr post-dose, 10 and 30 μg/ml), the “fold less potent 6-hr post-dose compared to 1.5 hr potency” value was “about 3 fold”. The “ID50 (potency)” value in experiment [1] (inhalation) came out at 4.4 µg/mL.
